Source: the supplement of paper PMC10307832

Columns and labels:
Assay in all cases: relative viability (nuclei count vs DMSO), 5 days (fraction); higher = more cells survive
Trametinib + Foretinib = compound: CC(=O)Nc1cccc(-n2c(=O)n(C3CC3)c(=O)c3c(Nc4ccc(I)cc4F)n(C)c(=O)c(C)c32)c1 [Trametinib] + COc1cc2c(Oc3ccc(NC(=O)C4(C(=O)Nc5ccc(F)cc5)CC4)cc3F)ccnc2cc1OCCCN1CCOCC1 [Foretinib] (partner 0.25 µM)
Procedure, shortened: (§1)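 Lung cancer cell lines in 1536-well plates got either a single drug or a fixed anchor-drug dose together with five library-drug doses (not always all listed) in √10 steps, by pin tool, on the day after seeding. Nuclei were counted after 5 days, and relative viability is the treated-to-vehicle ratio of nuclei counts. Values are medians of duplicate plates.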

Trametinib + Lapatinib = compound: CC(=O)Nc1cccc(-n2c(=O)n(C3CC3)c(=O)c3c(Nc4ccc(I)cc4F)n(C)c(=O)c(C)c32)c1 [Trametinib] + CS(=O)(=O)CCNCc1ccc(-c2ccc3ncnc(Nc4ccc(OCc5cccc(F)c5)c(Cl)c4)c3c2)o1 [Lapatinib] (partner 2 µM)
Procedure, shortened: as §1

[1] = compound: CN1C=C(C2=CC=CC=C21)/C=C\3/C4=C(C=CC=N4)NC3=O + N=C(N)NC(=N)NCCc1ccccc1 [Phenformin] (partner 250 µM)
Procedure, shortened: as §1

[2] = compound: CN1C=C(C2=CC=CC=C21)/C=C\3/C4=C(C=CC=N4)NC3=O + O=C(c1cc(Cc2n[nH]c(=O)c3ccccc23)ccc1F)N1CCN(C(=O)C2CC2)CC1 [Olaparib] (partner 8 µM)
Procedure, shortened: as §1

Cell Line: UMC-11
- relative viability (Trametinib + Foretinib; first compound 0.0025 µM): 1
- relative viability (Trametinib + Foretinib; first compound 0.007906 µM): 1.03
- relative viability (Trametinib + Foretinib; first compound 0.025 µM): 0.997
- relative viability (Trametinib + Foretinib; first compound 0.07906 µM): 1.06
- relative viability (Trametinib + Foretinib; first compound 0.25 µM): 1.03
- relative viability (Trametinib + Lapatinib; first compound 0.0025 µM): 0.951
- relative viability (Trametinib + Lapatinib; first compound 0.007906 µM): 0.973
- relative viability (Trametinib + Lapatinib; first compound 0.025 µM): 0.348
- relative viability (Trametinib + Lapatinib; first compound 0.07906 µM): 0.963
- relative viability (Trametinib + Lapatinib; first compound 0.25 µM): 0.758
- relative viability ([1]; first compound 0.02 µM): 0.299
- relative viability ([1]; first compound 0.06325 µM): 0.306
- relative viability ([1]; first compound 0.2 µM): 0.265
- relative viability ([1]; first compound 0.6325 µM): 0.369
- relative viability ([1]; first compound 2 µM): 0.34
- relative viability ([2]; first compound 0.02 µM): 0.461
- relative viability ([2]; first compound 0.06325 µM): 0.333
- relative viability ([2]; first compound 0.2 µM): 0.356
- relative viability ([2]; first compound 0.6325 µM): 0.381
- relative viability ([2]; first compound 2 µM): 0.47
